# Results published in US20130116215A1, “COMBINATION THERAPIES FOR TREATING NEUROLOGICAL DISORDERS” (priority 2011, published 2013).
# Entries after “also recorded” stand apart in the source; their conditions may differ. Like-named read-outs stand apart in the source and are kept apart here.
# Assays:
# [1] = molecular target: T1, Acetylcholinesterase (AChE) (Electrophorus electricus, UniProt O42275); format: biochemical
# T1 construct: purchased Invitrogen, Carlsbad, Calif
# Protocol: Current therapy for AD is based on improving the brain synaptic availability of acetylcholine by using acetylcholinesterase inhibitors (AChEls). Therefore, potential drug effect on neuronal dysfunction was studied with an in vitro Acetylcholinesterase (AChE) assay using Amplex Red Acetylcholine/Assay Kit (Invitrogen, Carlsbad, Calif.). The efficacy of ridogrel on memory was obtained running dose-response (10-100 μM). 10 μM Eserine, an anticholinesterase drug, was used as positive control.
# Current therapy for AD is based on improving the brain synaptic availability of acetylcholine by using acetylcholinesterase inhibitors (AChEls). Therefore, potential drug effect on neuronal dysfunction was studied with an in vitro Acetylcholinesterase (AChE) assay using Amplex Red Acetylcholine/Assay Kit (Invitrogen, Carlsbad, Calif.). The efficacy of diminazene aceturate on memory was obtained running dose-response (1-500 μM). 10 μM Eserine, an anticholinesterase drug, was used as positive control.
# [2] = test system: TAU phosphorylation; test: phospho-tau and Tau ELISA assay in tau-transfected HT4 cells; format: cell-based; conditions: tau-transfected mouse hippocampal-derived HT4 cell line
# Protocol: Docetaxel is a clinically well established anti-mitotic chemotherapy medication used mainly for the treatment of breast, ovarian and non-small cell lung cancer which had shown close proximity with Tau motive. Neurofibrillary tangles, a hallmark of AD, are intracellular abnormally aggregates of hyperphosphorylated protein TAU [19]. In that sense, Tau pathology was evaluated on tau-transfected in a mouse hippocampal-derived HT4 cell line using a phospho-tau and Tau ELISA assay (Sigma-aldrich, St Louis, Mo.). The level of TAU phosphorylation is used as an indicator of the degree of TAU pathology.
# [3] = test system: cells stably expressing wild-type presenilin-1 an Aβ precursor protein; test: Aβ1-40 and Aβ1-42 ELISA on extracellular media of treated cells; format: cell-based
# Text: The putative neurological effects of this drug have been confirmed experimentally using sensitive Aβ1-40 and Aβ1-42 ELISA kits (Wako, Osaka, Japan) on the extracellular media of treated and untreated cells stably expressing wild-type presenilin-1 an Aβ precursor protein. […] Aggregation and fibril formation of Aβ peptides are central events in the pathogenesis of Alzheimer's disease. Previous studies have established the ratio of Aβ1-40 to Aβ1-42 as an important factor in determining the fibrillogenesis, and toxicity of amyloid plaques.
# [4] = extracellular media, treated vs untreated cells
# T1 sequence (O42275 24-633): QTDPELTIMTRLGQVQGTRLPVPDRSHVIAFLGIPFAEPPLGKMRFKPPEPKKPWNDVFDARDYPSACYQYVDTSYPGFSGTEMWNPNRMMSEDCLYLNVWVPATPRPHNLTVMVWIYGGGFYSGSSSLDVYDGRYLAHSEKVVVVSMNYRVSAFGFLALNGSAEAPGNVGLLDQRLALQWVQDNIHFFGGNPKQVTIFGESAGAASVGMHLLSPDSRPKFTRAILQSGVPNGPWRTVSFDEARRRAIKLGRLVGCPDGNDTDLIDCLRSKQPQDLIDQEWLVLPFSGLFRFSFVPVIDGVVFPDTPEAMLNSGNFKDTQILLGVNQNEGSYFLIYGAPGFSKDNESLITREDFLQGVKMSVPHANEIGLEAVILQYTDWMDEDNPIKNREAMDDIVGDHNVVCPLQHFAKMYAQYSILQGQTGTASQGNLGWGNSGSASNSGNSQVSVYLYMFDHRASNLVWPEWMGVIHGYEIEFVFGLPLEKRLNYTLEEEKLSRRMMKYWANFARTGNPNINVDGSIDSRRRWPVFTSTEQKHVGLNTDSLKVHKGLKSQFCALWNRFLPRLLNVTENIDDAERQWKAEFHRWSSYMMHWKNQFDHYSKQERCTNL
structure (smiles),measurement,setting,value
"N=C(N)c1ccc(/N=N/Nc2ccc(C(=N)N)cc2)cc1 [Diminazene Aceturate, Diminazene aceturate]",inhibition of AChE,"[1]; dose-response 1-500 μM, inhibition with dose 500 to 10 μM",dose-dependent inhibition
CC(=O)O[C@@]12CO[C@@H]1C[C@H](O)[C@@]1(C)C(=O)[C@H](O)C3=C(C)[C@@H](OC(=O)[C@H](O)[C@@H](NC(=O)OC(C)(C)C)c4ccccc4)C[C@@](O)([C@@H](OC(=O)c4ccccc4)[C@H]21)C3(C)C [Docetaxel],TAU phosphorylation (pTAU/TAU ratio),[2],significantly reduces
same,TAU phosphorylation (pTAU/TAU ratio),[2]; listed as docetaxel,reduces TAU phosphorylation
Cc1c(OCC(F)(F)F)ccnc1C[S+]([O-])c1nc2ccccc2[nH]1 (stereo not shown) [Lansoprazole],Aβ1-40 peptide production,[3]; [4],significantly increases
same,Aβ1-42 peptide production,[3]; [4],significantly increase
same,Aβ1-40/Aβ1-42 ratio,[3]; treated cells,significant reduction; also recorded: reduces
O=C(O)CCCCO/N=C(/c1cccnc1)c1cccc(C(F)(F)F)c1 [Ridogrel],inhibition of AChE,"[1]; dose-response 10-100 μM, inhibition with dose 100 to 25 μM",dose-dependent inhibition
